This assay deals with Sigma non-opioid intracellular receptor 1 (Cavia porcellus, UniProt Q60492). The assay can be described thus: Displacement of [3H](+)-pentazocine from sigma 1 receptor in guinea pig brain membrane. The assay is classed as cell membranes. Background: In a radioligand displacement assay an active substance lowers the binding of a labelled ligand.

The values below come from ChEMBL document CHEMBL1177883, “5D-QSAR for spirocyclic sigma1 receptor ligands by Quasar receptor surface modeling” (Eur J Med Chem, 2010).

Sigma non-opioid intracellular receptor 1, sequence (Q60492 whole entry): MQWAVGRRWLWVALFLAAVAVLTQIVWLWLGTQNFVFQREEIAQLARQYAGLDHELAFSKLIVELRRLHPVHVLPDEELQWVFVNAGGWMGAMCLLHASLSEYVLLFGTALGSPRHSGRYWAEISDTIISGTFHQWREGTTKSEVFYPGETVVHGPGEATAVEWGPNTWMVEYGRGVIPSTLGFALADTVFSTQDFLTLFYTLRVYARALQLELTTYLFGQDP

As to `CO[C@H]1Cc2ccccc2C2(CCN(C)CC2)O1`, the Ki – broadly, a dissociation constant, usually derived from enzyme kinetics or from competition with a known ligand – was 4400 nM. Compound `OCC[C@H]1Cc2ccccc2C2(CCN(Cc3ccccc3)CC2)O1` had a Ki of 10 nM. `CCOC(=O)C[C@H]1OC2(CCN(Cc3ccccc3)CC2)c2ccccc21` showed an inhibition constant (Ki) of 15 nM. `CO[C@@H]1Cc2ccccc2[C@@]2(CCCN(Cc3ccccc3)C2)O1` (racemic) had a Ki of 1720 nM. With `CCCCN1CCC[C@@]2(C1)O[C@H](OC)Cc1ccccc12` (racemic), the Ki was 1290 nM. The same measure for `CO[C@H]1CCc2ccccc2C2(CCN(Cc3ccccc3)CC2)O1`: 2.6 nM; for `O[C@H]1OC2(CCN(CCc3ccccc3)CC2)c2ccccc21`: 109 nM; for `OCC[C@@H]1Cc2ccccc2C2(CCN(Cc3ccccc3)CC2)O1`: 48 nM. Next, `CO[C@H]1Cc2c(cnn2C)C2(CCN(Cc3ccccc3)CC2)O1`: 21 nM; `CCOC(=O)C[C@H]1Cc2ccccc2C2(CCN(Cc3ccccc3)CC2)O1`: 183 nM; `CO[C@@H]1OC2(CCN(Cc3ccccc3)CC2)c2cnn(-c3ccccc3)c21`: 0.49 nM. The same measure for `CC(=O)C[C@H]1Cc2sccc2C2(CCN(Cc3ccccc3)CC2)O1`: 12 nM. As for `Cn1ncc2c1CCOC21CCN(CCCc2ccccc2)CC1`, affinity was put at a Ki of 17 nM. With `OCC[C@@H]1Cc2ccccc2C2(CCN(CC3CCCCC3)CC2)O1`, affinity was put at a Ki of 9 nM.

Regarding `CO[C@H]1Cc2sccc2C2(CCN(CC3CCCCC3)CC2)O1`, the Ki worked out at 0.3 nM. `CCCN1CCC2(CC1)O[C@@H](OC)Cc1c2cnn1C` gave a Ki of 2980 nM. Compound `CO[C@H]1Cc2sc(-c3ccccc3)cc2C2(CCN(Cc3ccco3)CC2)O1` had a Ki of 2.2 nM. Compound `CC(=O)C[C@@H]1Cc2sccc2C2(CCN(Cc3ccccc3)CC2)O1` registered an inhibition constant (Ki) of 9.4 nM. Next, `OCC[C@H]1Cc2ccccc2C2(CCN(CC3CCCCC3)CC2)O1`: 10 nM; `CO[C@H]1Cc2sccc2C2(CCN(CC=C(C)C)CC2)O1`: 1 nM.

Consider `COC(=O)c1cc2c(s1)C[C@H](OC)OC21CCN(Cc2ccccc2)CC1`, for which the Ki worked out at 10.9 nM. Take `CO[C@H]1Cc2sccc2C2(CCN(CCCCc3ccccc3)CC2)O1`: the Ki was 7.7 nM. Next, `CO[C@@H]1Cc2ccccc2[C@@]2(CCCN(CCc3ccccc3)C2)O1` (racemic): 470 nM; `CC(C)=CCN1CCC2(CC1)OCCc1c2cnn1C`: 14 nM. The same measure for `OCC[C@@H]1Cc2ccccc2C2(CCN(CCCc3ccccc3)CC2)O1`: 68 nM; for `c1ccc(CCCN2CCC3(CC2)OCCc2c3cnn2-c2ccccc2)cc1`: 0.81 nM. Next, `CO[C@H]1Cc2c(cnn2-c2ccccc2)C2(CCN(Cc3ccccc3)CC2)O1`: 1.5 nM. Consider `CO[C@H]1Cc2sc(CN(C)C)cc2C2(CCN(Cc3ccccc3)CC2)O1`, for which affinity was put at a Ki of 17 nM. Next, `CO[C@H]1Cc2sc(C(=O)c3ccccc3)cc2C2(CCN(Cc3ccccc3)CC2)O1`: 3.7 nM; `CO[C@H]1Cc2c(cnn2-c2ccccc2)C2(CCN(CC(C)C)CC2)O1`: 6.3 nM. Next, `CCC[C@H]1OC2(CCN(Cc3ccccc3)CC2)c2ccccc21`: 3.2 nM; `CO[C@H]1Cc2sccc2C2(CCN(Cc3ccccc3)CC2)O1`: 0.32 nM; `CO[C@H]1Cc2ccccc2C2(CCN(CCCCc3ccccc3)CC2)O1`: 10 nM. The same measure for `O[C@H]1Cc2ccccc2C2(CCN(CCc3ccccc3)CC2)O1`: 44 nM; for `OCC[C@H]1Cc2ccccc2C2(CCN(CCCc3ccccc3)CC2)O1`: 15 nM.

Regarding `CO[C@H]1Cc2sccc2C2(CCN(CCc3ccccc3)CC2)O1`, the inhibitory constant (Ki) amounted to 5.9 nM. Compound `CO[C@H]1Cc2c(cnn2-c2ccccc2)C2(CCN(C(C)C)CC2)O1` had a Ki of 210 nM.

In the case of `CCCN1CCC2(CC1)O[C@@H](OC)Cc1c2cnn1-c1ccccc1`, the affinity corresponds to a Ki of 33 nM.
